The values below come from patent publication US11420910B2, “Methods for low temperature fluorine-18 radiolabeling of biomolecules” (KATHOLIEKE UNIVERSITEIT LEUVEN, priority 2014, dated 2022).

Several values for one entry are separate records, joined by “and”; a condition that tells them apart may be missing. Equal values may be shown once.

A short description of data set [1]: Stability tests of Al18F-complexes in PBS (0.1 M, pH 7) at 37° C., Example 26. Conditions: PBS 0.1 M pH 7, 37° C. It is filed as physicochemical. As to the method:
(§1) 400 μl of each purified [Al^18F]-complex solution was added to 1 mL of PBS and/or 1 mL of rat serum. […] Finally the supernatant was analysed using iTLC-SG.

A short description of data set [2]: Stability tests of Al18F-complexes in rat serum at 37° C., Example 26. It is filed as in vitro ADME. As to the method: as §1
The nature of data set [3]: Biodistribution of Al18F-complexes and {Al18F}2+ in healthy male NMRI mice. It is filed as in vivo. Conditions: NMRI mice, tail vein. On the procedure:
Quantification of radioactivity during biodistribution studies was performed using an automated gamma counter equipped with a 3-inch NaI(TI) well crystal coupled to a multichannel analyzer, mounted in a sample changer (Perkin Elmer 1480 Wizard 3q). Counts were corrected for background radiation, physical decay and counter dead time.
(§2) The biodistribution of the [Al^18F]-L3 complex and {Al^18F}^2+ was determined in healthy male Naval Medical Research Institute (NMRI) mice (body weight: 30-40 g) at 10 and 60 min post injection (p.i.) (n=4/time point). Mice were injected with the [Al^18F]-L3 complex (about 1 MBq) or {Al^18F}^2+ (5.55 MBq) via a tail vein under anesthesia (2.5% isoflurane in O2 at 1 L/min flow rate) and sacrificed by decapitation at above specified time points. Blood and major organs were collected in tared tubes and weighed. The radioactivity in blood, organs and other body parts was counted using an automated γ-counter. For the calculation of total radioactivity in blood, bone and muscle, masses were assumed to be, respectively, 7, 12 and 40% of the total body mass.^20, 21
Quantification of radioactivity during biodistribution studies was performed using an automated gamma counter equipped with a 3-inch Nai(TI) well crystal coupled to a multichannel analyzer, mounted in a sample changer (Perkin Elmer 1480 Wizard 3q). Counts were corrected for background radiation, physical decay and counter dead time.
as §2, with “[Al^18F]-L26” for “[Al^18F]-L3”, “(n=3/time point for 10 min p.i. and n=4/time point for 60 min p.i.).” for “(n=4/time point).”, “mass.^20,21” for “mass.^20, 21”

A short description of data set [4]: Stability tests in PBS (0.1 M, pH 7.4) at 37° C., Examples 29 and 33. It is filed as physicochemical. As to conditions: for % intact tracer: PBS 0.1M pH 7.4, 37° C., 1 h; for stability in PBS (in words): 37° C.
Method: These mixtures were incubated at 37° C. and analysed by iTLC-SG at 10, 30, 60, 120, 180 and 240 min after the start of the incubation (N=3). Serum samples were denatured by addition of 50 μl of the serum solution to 50 μl of acetonitrile. The mixture was stirred and centrifuged (1300 g, 3 min). Finally the supernatant was analysed using iTLC-SG.

Take `O=C1CN(Cc2ccccc2)CCN2CC(=O)[O][Al-]([18F])([O]1)[O]c1ccc([N+](=O)[O-])cc1C2` (centres unmarked) [Al^18F-L5]: the “stability in PBS (in words)” value in data set [1] was “comparable to that of Al^18F-NODA-benzyl up to 60 minutes”. Besides, the RCP worked out at 78% in data set [1] (120 min), 65% in data set [1] (240 min) and 39% in data set [2] (240 min). Besides, the “stability in rat serum (in words)” value in data set [2] is “good stability in rat serum”.

With `O=C1CN(Cc2ccccc2)CCN(Cc2ccccn2)CC(=O)[O][Al]([18F])[O]1` [Al^18F-L7], in data set [1], the “stability in PBS (in words)” value is listed as “do not seem to be stable”.

In data set [3] (10 min p.i.), `[18F][Al+2]` [{Al^18F}^2+, reference compound] came in with an uptake in blood of 5.0 % ID, an uptake in bone of 60 % ID, an uptake in intestines of 4.22 % ID and an uptake in kidneys of 2.2 % ID. In data set [3] (10 min p.i.), the uptake in liver amounted to 3.71 % ID and the “uptake in urinary bladder” value turned out to be 20.7 % ID. For the same compound, in data set [3] (60 min p.i.), the uptake in blood is given as 0.6 % ID; the uptake in bone is 83 % ID and 83.3 % ID; the uptake in intestines is listed as 1.91 % ID; the uptake in kidneys is 0.5 % ID. For the same compound, in data set [3] (60 min p.i.), the uptake in liver was 0.55 % ID and the “uptake in urinary bladder” value was determined as 30.6 % ID.

Consider `O=C1CN(Cc2ccccc2)CCN2CC(=O)[O][Al-]([18F])([O]1)[O]c1ccc(F)cc1C2` (centres unmarked) [Al^18F-L4], for which the “stability in PBS (in words)” value in data set [1] was “comparable to that of Al^18F-NODA-benzyl up to 60 minutes”. In addition, the RCP in data set [1] (120 min) is 85%; in data set [1] (240 min) it was 74%; in data set [2] (240 min), 41%. Moreover, the “stability in rat serum (in words)” value in data set [2] was “good stability in rat serum”.

Consider `O=C1CN2CC(=O)[O][Al-]([18F])([O]1)[O]C(=O)CN(Cc1ccccc1)c1ccccc12` [Al^18F-L32], for which, in data set [4], the “% intact tracer” value was found to be 0% and the “stability in PBS (in words)” value was “unstable”.

For the compound `O=C1CN(Cc2ccccc2O)CCN2CC(=O)[O][Al-]([18F])([O]1)[O]c1ccccc1C2` (centres unmarked) [Al^18F-L2], the “stability in PBS (in words)” value in data set [1] was “do not seem to be stable”. Also, the RCP in data set [1] (120 min) was 31%; in data set [2] (120 min), 0%. In addition, the “stability in rat serum (in words)” value in data set [2] is listed as “unstable in serum”.

As to `O=C1CN2CC(=O)[O][Al-]([18F])([O]1)[O]C(=O)CN(Cc1ccccc1)C1CCCC12` (centres unmarked) [Al^18F-L31], in data set [4], the “% intact tracer” value was found to be 0% and the “stability in PBS (in words)” value is “unstable”.

As to `O=C1CN2CCN(Cc3ccccc3)CC(=O)[O][Al-]([18F])([O]1)[O]C(=O)C2` [Al^18F-L1], in data set [1], the “stability in PBS (in words)” value was “do not seem to be stable”. Further, the “stability in rat serum (in words)” value in data set [2] is on record as “unstable in serum”. In data set [2] (120 min), this compound showed an RCP of 0%.

`O=C1CN2CC(=O)[O][Al-]([18F])([O]1)[O]C(=O)CN(Cc1ccccc1)C1CC=CCC12` (centres unmarked) [Al^18F-L30]: the “stability in PBS (in words)” value in data set [4] was “only moderate stability”.

Turning to `O=C1CN2CCN(CCN(Cc3ccccc3)CC2)CC(=O)[O][Al]([18F])[O]1` [Al^18F-NODA-benzyl, reference compound], the RCP is 99% in data set [1] (60 min); 98% in data set [1] (120 min); 88% in data set [1] (240 min); 99% in data set [2] (60 min); 97% in data set [2] (120 min); 87% in data set [2] (240 min).
